Assay results as given in patent US11559525B2, “Therapeutic drug for dyskinesia” (Sumitomo Pharma Co., Ltd., priority 2019, dated 2023).
Marks after values point to notes of the source that are not given here.

Columns and labels:
[1] = system: PD-LID rat model (6-OHDA-lesioned rats); assay: Dyskinesia-like symptoms (AIMs score) after transdermal tandospirone tape agent in PD-LID rat model; format: in vivo
From the text: A rat striatum dopaminergic denervation model using topical administration of 6-hydroxydopamine (hereinafter, also referred to as “6-OHDA”) to one side of the brain is known as a typical experimental model for PD-LID (rats treated on one side with 6-OHDA (6-OHDA-lesioned rats)). Dyskinesia-like abnormal involuntary movements (AIMs) manifest in said model with repeated administration of levodopa (Lundblad et al., European Journal of Neuroscience, 2002, 15: 120-132, Winkler et al., Neurobiology of Disease, 2002, 10: 165-186).
Wistar male rats (12-week old, Japan SLC, Inc.) were used for the preparation of animal models. Desipramine hydrochloride (25 mg/kg; Wako Pure Chemical) was intraperitoneally administered. After 30 minutes from the administration, the rats were subjected to isoflurane inhalational anesthetic using a general anesthesia apparatus for experimental animals. Under isoflurane anesthesia, the rats were immobilized to a brain stereotaxic instrument. The skin on the head was incised with a surgical scalpel to expose the skull. The coordinates of the bregma used as the origin (AP: 0, ML: 0, DV: 0) was determined, and the coordinates of the right medial forebrain bundle (AP: −4.4 mm, ML: 1.5 mm, DV: 7.8 mm from bregma) were measured. After inserting an injection tube for administration at the measured coordinates, 6-OHDA (9 μg/4 μL; Sigma-Aldrich) inducing dopaminergic denervation was topically injected. After 2 weeks from surgery, apomorphine hydrochloride hemihydrate (0.5 mg/kg; Wako Pure Chemical) was subcutaneously administered, and the rotation movement to the opposite side from the 6-OHDA injected site was observed. Rats with 7 rotations or more per minute were used as rats treated on one side with 6-OHDA.
To make a PD-LID model, a mixture of levodopa methyl ester hydrochloride (6 mg/kg; Sigma-Aldrich) dissolved in saline and benserazide hydrochloride (15 mg/kg; Sigma-Aldrich) (hereinafter, also referred to as “levodopa containing solution”) was intraperitoneally administered once daily to 6-OHDA-lesioned rats. The levodopa containing solution was repeated administered for 3 weeks or longer to observe and evaluate the behavior. The behavior was observed and evaluated in a transparent acrylic cage for 1 minute every 20 minutes after 20 minutes from the intraperitoneal administration of the levodopa containing solution, up until after 3 hours from administration. […] The sum of the scores for Limb AIMs, Axial AIMs, and Orolingual AIMs in 3 hours was used as the total AIMs score. Individuals with a total AIMs score of less than 10 were excluded from the test as not manifesting a dyskinesia-like symptom. […] The rats were assigned to each dosing group by using the 3 hour AIMs score, Locomotive behavior score, and rat body weight as indicators, which were used for evaluation of drugs.
When evaluating a tape agent, the hair on the abdominal region of rats was shaved before the evaluation date. […] After 4 hours from application, a levodopa containing solution was intraperitoneally administered to observe and evaluate the behavior. Individuals with 50% or more of the tape agent coming off during the test were excluded from analysis.
(§1) After 4 hours from application, a levodopa containing solution was intraperitoneally administered to observe and evaluate the behavior. Individuals with 50% or more of the tape agent coming off during the test were excluded from analysis.
When evaluating dyskinesia-like symptoms, the sum of the Limb AIMs, Axial AIMs, and Orolingual AIMs at each evaluation point was used as the AIMs score.

[2] = Plasma tandospirone concentration measured after observation and evaluation of behavior in PD-LID rats; format: in vivo, rat; settings: rat, plasma
Description: 50 μL of rat plasma sample was fractionated into a polypropylene microtube. 50 μL of methanol (50 μL of standard solution for calibration curve sample) and 200 μL of internal standard solution (Bezafibrate methanol solution: 200 nmol/L, 200 μL of methanol for blank sample) are added and stirred for about 10 seconds with a mixer. This is centrifuged (4° C., 4500 rpm, 10 min), and then the supernatant is subjected to vacuum filtration using a filter (FastRemover MF 0.2 μm). 70 μL of aqueous 10 mmol/L ammonium acetate solution is added to 70 μL of the resulting filtrate and stirred for about 10 seconds with a mixer to prepare a measurement sample.
When evaluating a tape agent, the hair on the abdominal region of rats was shaved before the evaluation date. The tape agent of formulation 2 was applied to the abdominal regions of rats on the evaluation date at 60 cm^2/kg (37 mg/kg). After 4 hours from application, a levodopa containing solution was intraperitoneally administered to observe and evaluate the behavior. Individuals with 50% or more of the tape agent coming off during the test were excluded from analysis.
as §1
After 4 hours, a levodopa containing solution was administered to observe and evaluate the behavior.
After 4 hours, a levodopa containing solution was administered to observe and evaluate the behavior (day 0 of implanting the pump). Repeat administration of once daily levodopa containing solution was continued thereafter. The behavior was also observed and evaluated on day 13 of implanting the pump.

dopamine 2 receptors = dopamine 2 receptors (Homo sapiens, UniProt P14416); settings: in vitro; cited from earlier work
dopamine 2 receptors, sequence (P14416 whole entry): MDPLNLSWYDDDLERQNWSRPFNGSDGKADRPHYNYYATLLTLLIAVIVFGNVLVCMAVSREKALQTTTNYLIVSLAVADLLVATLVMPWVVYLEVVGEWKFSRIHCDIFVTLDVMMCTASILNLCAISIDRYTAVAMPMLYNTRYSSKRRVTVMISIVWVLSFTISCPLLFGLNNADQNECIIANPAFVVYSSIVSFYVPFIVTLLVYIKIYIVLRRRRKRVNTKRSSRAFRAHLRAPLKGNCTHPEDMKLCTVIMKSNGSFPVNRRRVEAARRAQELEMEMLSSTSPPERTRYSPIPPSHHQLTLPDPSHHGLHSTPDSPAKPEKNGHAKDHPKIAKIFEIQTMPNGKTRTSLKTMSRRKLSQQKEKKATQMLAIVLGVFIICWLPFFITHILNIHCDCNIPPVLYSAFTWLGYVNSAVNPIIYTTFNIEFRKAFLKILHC

[3] = transdermal condition 1, 37 mg/kg, no stripping
[4] = transdermal condition 2, 45 mg/kg, with stripping

- concentration at 7 h ([2]; continuous subcutaneous infusion 0.05 mg/kg/hour): 23.5 ng/mL
- concentration at 7 h ([2]; continuous subcutaneous infusion 0.25 mg/kg/hour): 119 ng/mL
- concentration at 7 h ([2]; continuous subcutaneous infusion 1.25 mg/kg/hour): 541 ng/mL
SMILES: O=C1[C@@H]2[C@H]3CC[C@H](C3)[C@@H]2C(=O)N1CCCCN1CCN(c2ncccn2)CC1 [tandospirone, (1R,2S,3R,4S)—N-[4-{4-(pyrimidine-2-yl)piperadine-1-yl}butyl]-2,3-bicyclo[2.2.1]heptanedicarboximide]
- difference (decrease) in total AIMs score in 3 hours, placebo tape agent minus tandospirone ([1]; transdermal condition 1 (no stripping), 37 mg/kg): 17.7**
- (ii) Indicator of rebound symptom of dyskinesia, in words [1, 3]: No effect
- (ii) Indicator of rebound symptom of dyskinesia: difference in total AIMs score in 100 to 180 minutes (placebo minus tandospirone) [1, 3]: −0.1
- difference (decrease) in total AIMs score in 3 hours, placebo tape agent minus tandospirone ([1]; transdermal condition 2 (with stripping), 45 mg/kg): 27.1**
- (ii) Indicator of rebound symptom of dyskinesia, in words [1, 4]: No effect
- (ii) Indicator of rebound symptom of dyskinesia: difference in total AIMs score in 100 to 180 minutes (placebo minus tandospirone) [1, 4]: 0.9
- affinity in receptor binding (dopamine 2 receptors): low affinity
